Measured values from the NIST ThermoML archive (doi:10.1021/je050175u).

Assay: excess molar enthalpy (molar enthalpy of mixing); xn = mol fraction of the nth substance listed
Conditions: Liquid, Flow calorimetry

COC(C)=O [methyl ethanoate] + CCCCCO
excess molar enthalpy [kJ/mol]
Conditions	298.15 K	308.15 K
5000 kPa, x1 = 0.049	0.344	–
5000 kPa, x1 = 0.1	0.658	–
5000 kPa, x1 = 0.15	0.922	–
5000 kPa, x1 = 0.2	1.14	–
5000 kPa, x1 = 0.249	1.32	–
5000 kPa, x1 = 0.299	1.46	–
5000 kPa, x1 = 0.349	1.57	–
5000 kPa, x1 = 0.401	1.65	–
5000 kPa, x1 = 0.451	1.69	–
5000 kPa, x1 = 0.5	1.7	–
5000 kPa, x1 = 0.55	1.69	–
5000 kPa, x1 = 0.599	1.64	–
5000 kPa, x1 = 0.65	1.55	–
5000 kPa, x1 = 0.749	1.3	–
5000 kPa, x1 = 0.801	1.11	–
5000 kPa, x1 = 0.85	0.892	–
5000 kPa, x1 = 0.901	0.627	–
5000 kPa, x1 = 0.95	0.335	–
10000 kPa, x1 = 0.049	0.346	–
10000 kPa, x1 = 0.051	–	0.359
10000 kPa, x1 = 0.099	0.661	0.679
10000 kPa, x1 = 0.15	0.923	0.932
10000 kPa, x1 = 0.199	1.14	1.17
10000 kPa, x1 = 0.248	1.32	–
10000 kPa, x1 = 0.251	–	1.36
10000 kPa, x1 = 0.299	1.46	1.51
10000 kPa, x1 = 0.348	1.57	–
10000 kPa, x1 = 0.351	–	1.62
10000 kPa, x1 = 0.4	1.65	1.7
10000 kPa, x1 = 0.45	1.69	1.75
10000 kPa, x1 = 0.499	1.7	1.75
10000 kPa, x1 = 0.55	1.69	1.74
10000 kPa, x1 = 0.599	1.64	1.68
10000 kPa, x1 = 0.649	1.55	1.6
10000 kPa, x1 = 0.701	–	1.47
10000 kPa, x1 = 0.748	1.29	–
10000 kPa, x1 = 0.752	–	1.32
10000 kPa, x1 = 0.8	1.1	1.14
10000 kPa, x1 = 0.85	0.88	0.921
10000 kPa, x1 = 0.901	0.612	0.634
10000 kPa, x1 = 0.95	0.313	0.327
